Measured values as given in PubChem BioAssay AID2060502 (Molecular Pharmacology Branch, DTP, NCI, 2025).

System: 885724-159-R-J1-PDC complex spheroid viability
Assay: Anticancer human tumor 885724-159-R-J1-PDC patient-derived pancreatic adenocarcinoma cell line growth inhibition [GQUAD]
Details: for IC50: curve of first compound; for viability, T/C: stronger effect = lower value; active means viability on the fitted dose curve at most 10% of control; inactive means the rest
Outline: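 Multi-cell-type spheroids of tumor cells with HUVEC and mesenchymal stem cells, treated with drug combinations. Concentrations descend in half-log steps from near clinical Cmax, or from 10 microM where Cmax is unknown; viability read-out.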

[1] = second compound 0.0316 µM, first compound 0.0316 µM
[2] = second compound 0.0316 µM, first compound 0.1 µM
[3] = second compound 0.0316 µM, first compound 0.316 µM
[4] = second compound 0.0316 µM, first compound 1 µM
[5] = second compound 0.0316 µM, first compound 3.16 µM
[6] = second compound 0.0316 µM, first compound 10 µM
[7] = second compound 0.1 µM, first compound 0.0316 µM
[8] = second compound 0.1 µM, first compound 0.1 µM
[9] = second compound 0.1 µM, first compound 0.316 µM
[10] = second compound 0.1 µM, first compound 1 µM
[11] = second compound 0.1 µM, first compound 3.16 µM
[12] = second compound 0.1 µM, first compound 10 µM
[13] = second compound 0.316 µM, first compound 0.0316 µM
[14] = second compound 0.316 µM, first compound 0.1 µM
[15] = second compound 0.316 µM, first compound 0.316 µM
[16] = second compound 0.316 µM, first compound 1 µM
[17] = second compound 0.316 µM, first compound 3.16 µM
[18] = second compound 0.316 µM, first compound 10 µM
[19] = second compound 1 µM, first compound 0.0316 µM
[20] = second compound 1 µM, first compound 0.1 µM
[21] = second compound 1 µM, first compound 0.316 µM
[22] = second compound 1 µM, first compound 1 µM
[23] = second compound 1 µM, first compound 3.16 µM
[24] = second compound 1 µM, first compound 10 µM
[25] = second compound 3.16 µM, first compound 0.0316 µM
[26] = second compound 3.16 µM, first compound 0.1 µM
[27] = second compound 3.16 µM, first compound 0.316 µM
[28] = second compound 3.16 µM, first compound 1 µM
[29] = second compound 3.16 µM, first compound 3.16 µM
[30] = second compound 3.16 µM, first compound 10 µM
[31] = second compound 10 µM, first compound 0.0316 µM
[32] = second compound 10 µM, first compound 0.1 µM
[33] = second compound 10 µM, first compound 0.316 µM
[34] = second compound 10 µM, first compound 1 µM
[35] = second compound 10 µM, first compound 3.16 µM
[36] = second compound 10 µM, first compound 10 µM
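Further: spheroids exposed to agents for seven days before readout.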
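Wherever viability, T/C is given: percent of vehicle control viability where 100% = DMSO wells.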

Cc1cccc(N(C)C(=O)C2C(O)CCN2c2nc(C)cc(C(F)(F)F)c2C#N)c1 (stereo not drawn) + Cc1[nH]c2ccc(F)cc2c1-c1nc2c3cccnc3c3ncccc3c2[nH]1
inactive: viability, T/C [1] 105% | viability, T/C [2] 93.1% | viability, T/C [3] 82.5% | viability, T/C [4] 100% | viability, T/C [5] 94.2% | viability, T/C [6] 93.1% | viability, T/C [7] 91.3% | viability, T/C [8] 95.3% | viability, T/C [9] 104% | viability, T/C [10] 98.6% | viability, T/C [11] 81.8% | viability, T/C [12] 87.8% | viability, T/C [13] 101% | viability, T/C [14] 101% | viability, T/C [15] 97.4% | viability, T/C [16] 79.9% | viability, T/C [17] 83.4% | viability, T/C [18] 86.7% | viability, T/C [19] 71.9% | viability, T/C [20] 70.6% | viability, T/C [21] 77.1% | viability, T/C [22] 66.2% | viability, T/C [23] 81% | viability, T/C [24] 70.8% | viability, T/C [25] 46.6% | viability, T/C [26] 41.4% | viability, T/C [27] 50.8% | viability, T/C [28] 42.6% | viability, T/C [29] 42.1% | viability, T/C [30] 43% | viability, T/C [31] 66.2% | viability, T/C [32] 68.3% | viability, T/C [33] 64.8% | viability, T/C [34] 69.1% | viability, T/C [35] 80.9% | viability, T/C [36] 82.7%
> 10 µM: IC50 (second compound 0.0316 µM) | IC50 (second compound 0.1 µM) | IC50 (second compound 0.316 µM) | IC50 (second compound 1 µM) | IC50 (second compound 10 µM)
< 0.0316 µM: IC50 (second compound 3.16 µM)

COc1cc(C2c3cc4c(cc3C(OC3OC5COC(C)OC5C(O)C3O)C3COC(=O)C23)OCO4)cc(OC)c1O (stereo not drawn) + CN(C)c1ccc(Nc2c3ccc(NC(=O)CCN4CCCC4)cc3nc3cc(NC(=O)CCN4CCCC4)ccc23)cc1
> 10 µM: IC50 (second compound 0.0316 µM) | IC50 (second compound 0.1 µM) | IC50 (second compound 0.316 µM) | IC50 (second compound 1 µM) | IC50 (second compound 3.16 µM) | IC50 (second compound 10 µM)
inactive: viability, T/C [1] 94.3% | viability, T/C [2] 90.8% | viability, T/C [3] 84.4% | viability, T/C [4] 87.6% | viability, T/C [5] 73.3% | viability, T/C [6] 72.6% | viability, T/C [7] 114% | viability, T/C [8] 87.2% | viability, T/C [9] 83.2% | viability, T/C [10] 81.8% | viability, T/C [11] 80.6% | viability, T/C [12] 69.4% | viability, T/C [13] 104% | viability, T/C [14] 82.9% | viability, T/C [15] 90.8% | viability, T/C [16] 89.5% | viability, T/C [17] 76.3% | viability, T/C [18] 64.2% | viability, T/C [19] 91.6% | viability, T/C [20] 86.1% | viability, T/C [21] 70.4% | viability, T/C [22] 76.6% | viability, T/C [23] 76% | viability, T/C [24] 60.4% | viability, T/C [25] 73.1% | viability, T/C [26] 63.1% | viability, T/C [27] 69.5% | viability, T/C [28] 56.6% | viability, T/C [29] 63.4% | viability, T/C [30] 57.8% | viability, T/C [31] 73.4% | viability, T/C [32] 74% | viability, T/C [33] 68.2% | viability, T/C [34] 82.6% | viability, T/C [35] 71.4% | viability, T/C [36] 56.6%

Cc1cccc(N(C)C(=O)C2C(O)CCN2c2nc(C)cc(C(F)(F)F)c2C#N)c1 (stereo not drawn) + Cc1cnc(CNC(=O)c2c(=O)c3ccc(N4CCCN(C)CC4)nc3n3c2sc2ccccc23)cn1
> 10 µM: IC50 (second compound 0.0316 µM) | IC50 (second compound 0.1 µM) | IC50 (second compound 0.316 µM) | IC50 (second compound 1 µM) | IC50 (second compound 3.16 µM) | IC50 (second compound 10 µM)
inactive: viability, T/C [1] 93.7% | viability, T/C [2] 107% | viability, T/C [3] 108% | viability, T/C [4] 99.7% | viability, T/C [5] 104% | viability, T/C [6] 96.9% | viability, T/C [7] 107% | viability, T/C [8] 106% | viability, T/C [9] 112% | viability, T/C [10] 98.6% | viability, T/C [11] 91.8% | viability, T/C [12] 108% | viability, T/C [13] 103% | viability, T/C [14] 84% | viability, T/C [15] 89.3% | viability, T/C [16] 93.9% | viability, T/C [17] 101% | viability, T/C [18] 82.5% | viability, T/C [19] 83.6% | viability, T/C [20] 95.6% | viability, T/C [21] 88.3% | viability, T/C [22] 88.4% | viability, T/C [23] 93.9% | viability, T/C [24] 94.3% | viability, T/C [25] 84% | viability, T/C [26] 70.5% | viability, T/C [27] 79.1% | viability, T/C [28] 72.8% | viability, T/C [29] 79.4% | viability, T/C [30] 73.3% | viability, T/C [31] 92.7% | viability, T/C [32] 90.9% | viability, T/C [33] 84.8% | viability, T/C [34] 72.6% | viability, T/C [35] 103% | viability, T/C [36] 84.3%

COc1ncnc(C2CC2)c1-c1ncc2cnn(Cc3ccc(-c4nc(C(F)(F)F)cn4C(C)C)cc3)c2n1 + Cc1[nH]c2ccc(F)cc2c1-c1nc2c3cccnc3c3ncccc3c2[nH]1
> 10 µM: IC50 (second compound 0.0316 µM) | IC50 (second compound 0.1 µM) | IC50 (second compound 0.316 µM) | IC50 (second compound 1 µM) | IC50 (second compound 10 µM)
< 0.0316 µM: IC50 (second compound 3.16 µM)
inactive: viability, T/C [1] 85.5% | viability, T/C [2] 91.4% | viability, T/C [3] 93.7% | viability, T/C [4] 81.8% | viability, T/C [5] 89.9% | viability, T/C [6] 94% | viability, T/C [7] 101% | viability, T/C [8] 90% | viability, T/C [9] 86.3% | viability, T/C [10] 90.4% | viability, T/C [11] 91.3% | viability, T/C [12] 111% | viability, T/C [13] 96.7% | viability, T/C [14] 81.5% | viability, T/C [15] 76.1% | viability, T/C [16] 72.3% | viability, T/C [17] 88% | viability, T/C [18] 82.3% | viability, T/C [19] 70.3% | viability, T/C [20] 65.8% | viability, T/C [21] 62.8% | viability, T/C [22] 56.3% | viability, T/C [23] 70.5% | viability, T/C [24] 67.8% | viability, T/C [25] 23.7% | viability, T/C [26] 12.7% | viability, T/C [27] 10.7% | viability, T/C [28] 8.78% | viability, T/C [29] 11.8% | viability, T/C [30] 12.8% | viability, T/C [31] 69.6% | viability, T/C [32] 66% | viability, T/C [33] 63.7% | viability, T/C [34] 72.1% | viability, T/C [35] 69.3% | viability, T/C [36] 68.3%
